Measurements reported in patent US6777428B1, “5-HT1f agonist” (Eli Lilly and Company, priority 1999, dated 2004).
Where a name gives a salt, the structure may show the parent alone.

Row | Compound | melting point
1 | CN1CCC(C(=O)c2cccc(NC(=O)c3ccc(O)cc3)c2)CC1 (as salt: hydrochloride) | > 200 °C
2 | CN1CCC(C(=O)c2cccc(NC(=O)c3ccco3)c2)CC1 (as salt: hydrochloride) | > 200 °C
3 | O=C(Nc1cccc(C(=O)C2CCNCC2)c1)c1ccc(F)cc1 (as salt: hydrochloride) | > 225 °C
4 | CN1CCC(C(=O)c2cccc(NC(=O)c3ccc(F)cc3I)c2)CC1.Cl | > 250 °C
5 | CN1CCC(C(=O)c2cccc(NC(=O)c3ccncc3)c2)CC1 (as salt: hydrochloride) | > 200 °C
6 | Cl.Nc1cccc(C(=O)C2CCNCC2)c1 | 208 to 210 °C
7 | CN1CCC(C(=O)c2cccc(NC(=O)c3ccc(F)cc3F)c2)CC1 (as salt: hydrochloride) | 181 to 183 °C
